From patent US10770169B2, “Method of providing a treatment to a subject based on a dynamic pathway map” (THE REGENTS OF THE UNIVERSITY OF CALIFORNIA, priority 2010, dated 2020)
“Also recorded” adds a separate entry of the source.

What was measured:
Format in all cases: cell-based, human
[1] = test system: panel of 55 breast cancer cell lines; test: Cell growth inhibition assay (Cell Titer Glo, 72 h, 9 doses; GI50, TGI, LC50); conditions: value is the negative log10 of mol/L
[2] = test system: luminal, basal, claudin-low and ERBB2AMP breast cancer cell lines; test: Associations of clinically relevant subtypes and response (non-parametric ANOVA or t-test on GI50 ranks)
In short: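 Significance was set at FDR p<0.20 after combining p-values across three test sets. Subtype–response associations came from rank-based non-parametric ANOVA or t-tests on GI50. For three-class comparisons, post-hoc tests of each group against the rest identified the most sensitive group, with FDR correction.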

[3] = test system: breast cancer cell lines with aberrant vs normal copy number; test: Association of recurrent copy number changes and response (t-test on GI50); conditions: FDR p<0.2
Source text: We used a t-test to assess the association between recurrent copy number changes (at 8q24 (MYC), 11q13 (CCND1), 20q13 (STK15/AURKA)) and drug sensitivity. We combined into a single group cell lines with low or no amplification and compared them to cell lines with high amplification. […] Cell lines for which the GI50 was equal to the maximum concentration tested were omitted from analysis. We omitted compounds where any group had fewer than five samples.

CCn1cc(-c2ccnc3[nH]c(-c4cccc(CN(C)C)c4)cc23)c(-c2ccc(NC(=O)N(C)C)cc2)n1 [GSK1070916]
GI50 ([1]; 600MPE cell line, censored GI50 values): 5.10
GI50 ([1]; AU565 cell line, censored GI50 values): 5.52
GI50 ([1]; BT474 cell line, censored GI50 values): 5.19
GI50 ([1]; BT483 cell line, censored GI50 values): 5.35
GI50 ([1]; CAMA1 cell line, censored GI50 values): 5.05
GI50 ([1]; HCC38 cell line, censored GI50 values): 6.44
GI50 ([1]; HCC70 cell line, censored GI50 values): 6.59
GI50 ([1]; HCC202 cell line, censored GI50 values): 6.03
GI50 ([1]; HCC1143 cell line, censored GI50 values): 5.51
GI50 ([1]; HCC1187 cell line, censored GI50 values): 7.95
GI50 ([1]; HCC1395 cell line, censored GI50 values): 6.24
GI50 ([1]; HCC1419 cell line, censored GI50 values): 5.18
GI50 ([1]; HCC1428 cell line, censored GI50 values): 5.19
GI50 ([1]; HCC1500 cell line, censored GI50 values): 5.19
GI50 ([1]; HCC1806 cell line, censored GI50 values): 5.16
GI50 ([1]; HCC1937 cell line, censored GI50 values): 5.42
GI50 ([1]; HCC1954 cell line, censored GI50 values): 5.56
GI50 ([1]; HCC2185 cell line, censored GI50 values): 6.34
GI50 ([1]; HCC3153 cell line, censored GI50 values): 4.95
GI50 ([1]; MCF7 cell line, censored GI50 values): 5.06
GI50 ([1]; MDAMB134VI cell line, censored GI50 values): 5.57
GI50 ([1]; MDAMB157 cell line, censored GI50 values): 5.95
GI50 ([1]; MDAMB175VII cell line, censored GI50 values): 5.07
GI50 ([1]; MDAMB231 cell line, censored GI50 values): 5.78
GI50 ([1]; MDAMB361 cell line, censored GI50 values): 5.19
GI50 ([1]; MDAMB415 cell line, censored GI50 values): 5.76
GI50 ([1]; MDAMB436 cell line, censored GI50 values): 7.01
GI50 ([1]; MDAMB453 cell line, censored GI50 values): 5.51
GI50 ([1]; MDAMB468 cell line, censored GI50 values): 7.89
GI50 ([1]; SKBR3 cell line, censored GI50 values): 5.29
GI50 ([1]; SUM149PT cell line, censored GI50 values): 5.48
GI50 ([1]; SUM159PT cell line, censored GI50 values): 5.77
GI50 ([1]; SUM185PE cell line, censored GI50 values): 5.94
GI50 ([1]; SUM1315MO2 cell line, censored GI50 values): 5.89
GI50 ([1]; cell line 600MPE): 5.10
GI50 ([1]; cell line AU565): 5.52
GI50 ([1]; cell line BT474): 5.19
GI50 ([1]; cell line BT483): 5.35
GI50 ([1]; cell line CAMA1): 5.05
GI50 ([1]; cell line HCC38): 6.44
GI50 ([1]; cell line HCC70): 6.59
GI50 ([1]; cell line HCC202): 6.03
GI50 ([1]; cell line HCC1143): 5.51
GI50 ([1]; cell line HCC1187): 7.95
GI50 ([1]; cell line HCC1395): 6.24
GI50 ([1]; cell line HCC1419): 5.18
GI50 ([1]; cell line HCC1428): 5.19
GI50 ([1]; cell line HCC1500): 5.19
GI50 ([1]; cell line HCC1806): 5.16
GI50 ([1]; cell line HCC1937): 5.42
GI50 ([1]; cell line HCC1954): 5.56
GI50 ([1]; cell line HCC2185): 6.34
GI50 ([1]; cell line HCC3153): 4.95
GI50 ([1]; cell line MCF7): 5.06
GI50 ([1]; cell line MDAMB134V): 5.57
GI50 ([1]; cell line MDAMB157): 5.95
GI50 ([1]; cell line MDAMB175V): 5.07
GI50 ([1]; cell line MDAMB231): 5.78
GI50 ([1]; cell line MDAMB361): 5.19
GI50 ([1]; cell line MDAMB415): 5.76
GI50 ([1]; cell line MDAMB436): 7.01
GI50 ([1]; cell line MDAMB453): 5.51
GI50 ([1]; cell line MDAMB468): 7.89
GI50 ([1]; cell line SKBR3): 5.29
GI50 ([1]; cell line SUM52PE): 6.84
GI50 ([1]; cell line SUM149PT): 5.48
GI50 ([1]; cell line SUM159PT): 5.77
GI50 ([1]; cell line SUM185PE): 5.94
GI50 ([1]; cell line SUM1315MO): 5.89
GI50 ([1]; cell line UACC812): 4.51
GI50 ([1]; cell line UACC893): 5.06
GI50 ([1]; cell line ZR75B): 5.75
GI50 ([1]; cell line ZR751): 4.94
GI50 ([1]; cell line ZR7530): 4.71
subtype-specific response (sensitivity by transcriptional subtype) ([2]; GI50 across subtypes): more active against basal and claudin-low cell lines
Subtype specificity ([2]; Table 6, most sensitive subtype, FDR p<0.20): Claudin-low
association of response with amplification at 11q13 (CCND1) [3]: associated with sensitivity; also recorded: associated with response
association of response with amplification at 20q13 (STK15/AURKA) [3]: associated with resistance, rather than sensitivity
